# In patent US7612113B2, “Hydroxy tetrahydro-naphthalenylurea derivatives” (Xention Limited, priority 2002, dated 2009):
# How the values were obtained:
# human VR1 = biological target: T1, human VR1 (Homo sapiens, UniProt Q8NER1); assay: capsaicin-induced Ca2+ influx in the human VR1-transfected CHO cell line (Assay 1); format: cell-based; conditions: Table 3; 10 nM capsaicin, human VR1-CHOluc9aeq cells; read-out: activity class
# T1 construct: expressed in transfected cells
# Source text: [Measurement of capsaicin-induced Ca^2+ influx in the human VR1-transfected CHO cell line] (Assay 1)
# • (1) Establishment of the Human VR1-CHOluc9aeq Cell Line • Human vanilloid receptor (hVR1) cDNA was cloned from libraries of axotomized dorsal root ganglia (WO 00/29577). The cloned hVR1 cDNA was constructed with pcDNA3 vector and transfected into a CHOluc9aeq cell line. The cell line contains aequorin and CRE-luciferase reporter genes as read-out signals. The transfectants were cloned by limiting dilution in selection medium (DMEM/F12 medium (Gibco BRL) supplemented with 10% FCS, 1.4 mM Sodium pyruvate, 20 mM HEPES, 0.15% Sodium bicarbonate, 100 U/ml penicillin, 100 μg/ml streptomycin, 2 mM glutamine, non-essential amino acids and 2 mg/ml G418). Ca^2+ influx was examined in the capsaicin-stimulated clones. A high responder clone was selected and used for further experiments in the project. The human VR1-CHOluc9aeq cells were maintained in the selection medium and passaged every 3-4 days at 1-2.5×10^5 cells/flask ([…]). • (2) Measurement of Ca^2+ Influx Using FDSS-3000 • Human VR1-CHOluc9aeq cells were suspended in a culture medium which is the same as the selection medium except for G418 and seeded at a density of 1,000 cells per well into 384-well plates (black walled clear-base/Nalge Nunc International). Following the culture for 48 hrs the medium was changed to 2 μM Fluo-3 AM (Molecular Probes) and 0.02% Puronic F-127 in assay buffer (Hank's balanced salt solution (HBSS), 17 mM HEPES (pH7.4), 1 mM Probenecid, 0.1% BSA) and the cells were incubated for 60 min at. 25° C. After washing twice with assay buffer the cells were incubated with a test compound or vehicle for 20 min at 25° C. Mobilization of cytoplasmic Ca^2+ was measured by FDSS-3000 (λex=488 nm, λem=540 nm/Hamamatsu Photonics) for 60 sec after the stimulation with 10 nM capsaicin. Integral R was calculated and compared with controls. [Measurement of the Capsaicin-Induced Ca^2+ Influx in Primary Cultured Rat Dorsal Root Ganglia Neurons] (Assay 2) • (1) Preparation of Rat Dorsal Root Ganglia Neurons • New born Wister rats (5-11 days) were sacrificed and dorsal root ganglia (DRG) was removed. DRG was incubated with 0.1% trypsin (Gibco BRL) in PBS(−) (Gibco BRL) for 30 min at 37° C., then a half volume of fetal calf serum (FCS) was added and the cells were spun down. The DRG neuron cells were resuspended in Ham F12/5% FCS/5% horse serum (Gibco BRL) and dispersed by repeated pipetting and passing through 70 μm mesh Falcon). The culture plate was incubated for 3 hours at 37° C. to remove contaminating Schwann cells. Non-adherent cells were recovered and further cultured in laminin-coated 384 well plates (Nunc) at 1×10^4 cells/50 μl/well for 2 days in the presence of 50 ng/ml recombinant rat NGF (Sigma) and 50 μM 5-fluorodeoxyuridine (Sigma). • (2) Ca^2+ Mobilization Assay • DRG neuron cells were washed twice with HBSS supplemented with 17 mM HEPES (pH 7.4) and 0.1% BSA. After incubating with 2 μM fluo-3AM (Molecular Probe), 0.02% PF127 (Gibco BRL) and 1 mM probenecid (Sigma) for 40 min at 37° C., cells were washed 3 times. The cells were incubated with VR1 antagonists or vehicle (dimethylsulphoxide) and then with 1 μM capsaicin in FDSS-6000 (λex=480 nm, λem=520 nm/Hamamatsu Photonics). The fluorescence changes at 480 nm were monitored for 2.5 min. Integral R was calculated and compared with controls. [Organ Bath Assay to Measure the Capsaicin-Induced Bladder Contraction] (Assay 3)
# The data corresponds to the compounds as yielded by solid phase synthesis and thus to levels of purity of about 40 to 90%. For practical reasons, the compounds are grouped in four classes of activity as follows: IC50=A(<or=)0.1 μM<B(<or=)0.5 μM<C(<or=)1 μM<D
# T1 sequence (Q8NER1 whole entry): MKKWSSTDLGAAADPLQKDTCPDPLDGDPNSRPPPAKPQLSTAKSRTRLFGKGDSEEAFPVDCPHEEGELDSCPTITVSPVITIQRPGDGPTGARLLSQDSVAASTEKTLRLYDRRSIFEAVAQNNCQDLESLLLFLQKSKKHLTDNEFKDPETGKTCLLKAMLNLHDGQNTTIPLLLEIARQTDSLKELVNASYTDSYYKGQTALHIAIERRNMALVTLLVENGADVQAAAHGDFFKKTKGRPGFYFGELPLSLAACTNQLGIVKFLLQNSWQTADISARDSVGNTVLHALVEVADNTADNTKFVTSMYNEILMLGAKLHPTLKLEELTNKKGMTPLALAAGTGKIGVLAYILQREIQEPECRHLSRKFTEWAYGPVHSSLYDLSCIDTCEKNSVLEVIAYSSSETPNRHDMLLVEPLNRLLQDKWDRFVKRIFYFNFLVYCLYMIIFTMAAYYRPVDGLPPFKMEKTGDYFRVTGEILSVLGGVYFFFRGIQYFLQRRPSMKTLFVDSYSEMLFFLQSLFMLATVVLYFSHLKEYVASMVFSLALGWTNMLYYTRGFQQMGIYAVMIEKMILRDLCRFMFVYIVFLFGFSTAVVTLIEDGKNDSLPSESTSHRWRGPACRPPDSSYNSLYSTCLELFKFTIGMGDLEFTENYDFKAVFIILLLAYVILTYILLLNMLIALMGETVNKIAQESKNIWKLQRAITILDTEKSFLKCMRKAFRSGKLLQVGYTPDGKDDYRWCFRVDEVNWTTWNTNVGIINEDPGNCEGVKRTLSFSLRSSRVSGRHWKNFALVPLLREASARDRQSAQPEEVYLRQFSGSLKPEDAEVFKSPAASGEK
IC50 (human VR1),melting point,Structure (SMILES)
500 to 1000 nM,223 °C,Cc1ccccc1NC(=O)Nc1cccc2c1CC(O)CC2 (centres unmarked) [Example 5-6]
< 100 nM,194 to 195 °C,O=C(Nc1cccc(Oc2ccccc2)c1)Nc1cccc2c1CC(O)CC2 (centres unmarked) [Example 5-10]
< 100 nM,203 to 204 °C,O=C(Nc1cccc(OC(F)(F)F)c1)Nc1cccc2c1CC(O)CC2 (centres unmarked) [Example 5-11]
< 100 nM,226 to 228 °C,O=C(Nc1cccc(I)c1)Nc1cccc2c1CC(O)CC2 (centres unmarked) [Example 5-13]
